We go through ten compounds from patent US5491236A, “(1,2N) and (3,2N)-carbocyclic-2-amino tetralin derivatives” (The Upjohn Company, priority 1991, dated 1996).

pIC50: −log10 of the molar value. Structures can show the parent of a compound that is named as a salt.

For assay [1], the system named is Sympathetic Nerve Discharge. Nature of the assay: Sympathetic Nerve Discharge (SND) in chloralose anesthetized cats. Format: in vivo. As to conditions: for Max. Decr. SND %: maximum inhibition of sympathetic activity in dose range 0.001-1.0 mg/kg i.v., cats. As to the method:
Sympathetic Nerve Discharge (SND): The i.v. mg/kg dose causing a 50% depression in SND in chloralose anesthetized cats and the maximum inhibition of sympathetic activity observed in the dose range tested (0.00 1-1.0 mg/kg i.v. ).

Assay [2] can be described thus: BP SND/MAX: blood pressure of chloralose anesthetized cats. The format is in vivo. The note with it: for % BP Control: blood pressure in percent control at the dose causing 50% depression in SND, cats i.v.; for Max. Decr. BP (at SND ED50): maximum reduction in blood pressure as percent of control, 0.001-1.0 mg/kg i.v., cats. As to the method:
BP SND/MAX: The blood pressure of the chloralose anesthetized cats in percent control at the dose causing 50% depression in SND and the maximum reduction in blood pressure as percent of the control blood pressure in the same animals observed in the dose range tested (0.001-1.0 mg/kg i.v.).

Assay [3] addresses T1, 5-hydroxytryptamine (5-HT1A) receptor (Bos taurus, UniProt F6Q2H9).
T1 construct: from tissue; host or cells: bovine brain homogenate
T1 sequence (F6Q2H9 1-422): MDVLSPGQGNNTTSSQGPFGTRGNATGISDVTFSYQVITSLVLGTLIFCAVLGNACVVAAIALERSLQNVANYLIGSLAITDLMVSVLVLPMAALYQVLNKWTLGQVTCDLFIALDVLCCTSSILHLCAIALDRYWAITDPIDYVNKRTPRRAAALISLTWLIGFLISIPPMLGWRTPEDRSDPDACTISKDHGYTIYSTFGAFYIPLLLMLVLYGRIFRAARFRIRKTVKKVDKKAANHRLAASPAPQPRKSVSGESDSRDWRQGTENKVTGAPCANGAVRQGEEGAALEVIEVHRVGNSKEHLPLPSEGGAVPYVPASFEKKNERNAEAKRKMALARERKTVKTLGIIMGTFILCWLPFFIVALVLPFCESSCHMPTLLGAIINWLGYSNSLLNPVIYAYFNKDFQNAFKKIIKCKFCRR
Put plainly: Inhibition of 8-OH-DPAT binding in a bovine brain homogenate (5-HT1A binding). An excerpt: Binding: Inhibition of 8-OH-DPAT binding in a bovine brain homogenate. Potency is given as nM dose required to inhibit 50% of DPAT binding (IC50). This test measures ability to bind to 5-hydroxytryptamine (5-HT1A) receptor.

Assay [4] in a line: Hypothermia in mice (s.c.). The format is in vivo. As to conditions: subcutaneous, dose required to depress temperature by 2° C. in two of four mice; for ED50: Mus musculus, sc. As to the method:
Hypothermia: Starting with a dose of 30 mg/kg, four mice are injected subcutaneously with test compound. Twenty minutes later, the number of animals whose body temperature has decreased by 2° C. or more are counted. If all four animals reach criteria, the drug is considered "active", and subsequent readings are taken at 60 and 120 minutes after drug. The time for last statistically significant drug affect on mean body temperature is indicated in minutes. […] Potency is given as mg/kg ED50 (dose required to depress temperature in two of four mice) as measured by Spearman-Karber statistics.

Assay [5] relates to 5-HT1A receptor. Put plainly: Selectivity, IC50 ratio of dopamine D2 to 5-HT1A in vitro binding. The note with it: result in words. An excerpt:
(§1) The compounds of this invention where R1 is in 8-position in the aromatic ring are very selective 5-HT1A receptor agonists having generally little or no dopaminergic activity. […] The compound of this invention where R1 is in 5-position in the aromatic ring, on the other hand, have dopaminergic activity with little 5-HT1A agonist activity. […] These compounds are particularly effective anxiolytic and antidepressant agents. Other uses for these compounds include panic attacks, obsessive-compulsive disturbances, and senile dementia particularly the emotional disturbances seen in dementia disorders. In addition, central 5 -HT receptor activation are believed to be involved in mediating sexual behavior. These compounds would be useful to stimulate sexual activity and to alleviate impotence. The compounds of this invention are also useful to alleviate aggressive behavior, confusional delirious states.

Assay [6] relates to dopamine. Nature of the assay: Dopamine activity (evaluation of dopamine and serotonin metabolites). The note with it: result in words.
Text: as §1

Assay [7] relates to 5-HT1A receptor. Nature of the assay: 5-HT1A agonist activity. As to conditions: result in words.
Text: as §1

For assay [8] the following is noted: Chem. Ab., 79: 146294b; cited from earlier work.
For assay [9] the following is noted: J. Pharm. Sci., 67, 880-82 (1978); cited from earlier work.
Assay [10] deals with dopamine receptors. The note with it: background, result in words; cited from earlier work.
For assay [11] the following is noted: some patients; result in words; cited from earlier work.
For assay [12] the following is noted: man, low doses; result in words; cited from earlier work.
Assay [13] relates to dopamine autoreceptors. The note with it: background, result in words; cited from earlier work.

For the compound `C=CCN1CC[C@@H]2c3ccccc3CC[C@@H]21.Cl` (racemic) [Example 4 Compound #1, Cis-(+-)-2,3,3a,4,5,9b-hexahydro-3-(2-propenyl)-1H-benz[e]indole hydrochloride], it took a dose of 0.09 mg/kg to reach the 50% effect level in assay [1] (Felis catus, iv, i.v. dose causing 50% depression in SND, chloralose anesthetized cats) (ED50). The “Max. Decr. SND %” value in [1] is recorded as 0.0%. Further, in assay [2], the “% BP Control” value stood at 76% and the “Max. Decr. BP (at SND ED50)” value stood at 60%.

On to `C=CCN1CC[C@@H]2c3c(cccc3OC)CC[C@@H]21` (racemic) [Example 4 Compound #2, cis-(+-)-2,3,3a,4,5,9b-hexahydro-9-methoxy-3-(2-propenyl)-1H-benz[e]indole hydrochloride], for which the pIC50 (as a rule, −log10 of the IC50, conventionally taken in molar units) in assay [3] was 8.55. In addition, the 50% effect level in assay [4] (ED50) was put at a dose of 2.3 mg/kg. Besides, the “selectivity for the 5-HT1A receptor” value in [5] is given as “demonstrates the selectivity for the 5-HT1A receptor”.

For `C=CCN1CC[C@@H]2c3cccc(OC)c3CC[C@@H]21.Cl` (racemic) [Example 4 Compound #3, Cis-(+-)-2,3,3a,4,5,9b-hexahydro-6-methoxy-3-(2-propenyl)-1H-benz[e]indole hydrochloride], the dopamine activity result in [6] (hydrochloride) was “good selective dopamine activity”; in assay [6] (listed as Example 4, compound #3, hydrochloride), “selective dopamine antagonist activity”. The 5-HT1A agonist activity entry in assay [7] was “low 5-HT1A agonist activity”. This compound had a pIC50 in assay [3] of 6.20. In addition, the median effective dose (ED50) (as a rule, the midpoint of the dose-response relation) in assay [4] is 30 mg/kg.

In assay [3], `C=CCN1[C@H](C)C[C@H]2c3c(O)cccc3CC[C@H]21` (relative stereo) [Example 2 Compound #1, (+-)-2α,3,3a,α,4,5,9b,α-hexahydro-2-methyl-3-(2-propenyl)-1H-benz[e]indol-9-ol hydrochloride] showed a pIC50 of 9.02. The compound also came in with an ED50 in [4] of 5.5 mg/kg.

With `CN(C)C1CCc2ccc(O)cc2C1(C)C` (stereo not drawn) [1,1-Dimethyl-2-(N,N-dimethylamino)-7-hydroxytetralin], the “analgesic and intestinal movement accelerating actions” value in assay [8] was “analgesic and intestinal movement accelerating actions”.

`COc1cccc2c1CCC(NC1CC1)C2C` (stereo not drawn) [1-methyl-2-(cyclopropylamino)-5-methoxytetralin]: the local anesthetic activity entry in [9] is on record as “local anesthetic activity”.

For the compound `O=C1CC2(CCCC2)CC(=O)N1CCCCN1CCN(c2ncccn2)CC1` [Buspirone], the dopamine receptor antagonism result in [10] is listed as “antagonizes dopamine receptors at the same dose it stimulates 5-HT1A receptors”.

For the compound `CC1(C)CC(=O)N(CCCCN2CCN(c3ncccn3)CC2)C(=O)C1` [Gepirone], in [11], the “effects on depressive endpoints” value is “ameliorative effects on some depressive endpoints in some patients”. Also, the dopamine receptor antagonism result in [10] was “dopamine antagonist properties”.

Turning to `CN1CCc2cccc3c2[C@H]1Cc1ccc(O)c(O)c1-3` [apomorphine], in assay [12], the “anti-psychotic and anti-dyskinetic effects” value was “anti-psychotic and anti-dyskinetic effects in man”. Also, the “activation of dopamine autoreceptors and post synaptic dopamine receptors” value in assay [13] was “able to activate the dopamine autoreceptors as well as the post synaptic dopamine receptors”.

The compound “(+-)-1,2,2a,-3,4,8b-hexahydro-8-methoxy-2-(prop-2-en-1-yl)-naphtho[2, 1-B]azetidine hydrochloride [Example 5 Compound #1]” gave a pIC50 in assay [3] of 7.83. For the same compound, the “SND ED50” value in assay [1] (i.v. dose causing 50% depression in SND, chloralose anesthetized cats) was found to be 0.083 mg/kg. Besides, the “Max. Decr. SND %” value in assay [1] was found to be 14.0%. The “Hypothermia ED50” value in [4] was determined as 4.1 mg/kg. In [2], the “% BP Control” value was 77% and the “Max. Decr. BP (at SND ED50)” value is reported as 59%.
